Data published in patent EP4806894A1, “TNAP INHIBITORY COMPOUND AND USE THEREOF” (Rednvia Co., Ltd., priority 2023, dated 2025).
Counter-ions that a name gives are not always drawn.

How the values were obtained:
TNAP = target: T1, TNAP (Homo sapiens, UniProt P05186); assay: TNAP inhibitory activity, colorimetric assay (alkaline phosphatase assay kit ab83369, pNPP substrate); type: biochemical; settings: TNAP enzyme, 2 hours at room temperature, absorbance 405 nm
T1 sequence (P05186 18-502 limits assumed): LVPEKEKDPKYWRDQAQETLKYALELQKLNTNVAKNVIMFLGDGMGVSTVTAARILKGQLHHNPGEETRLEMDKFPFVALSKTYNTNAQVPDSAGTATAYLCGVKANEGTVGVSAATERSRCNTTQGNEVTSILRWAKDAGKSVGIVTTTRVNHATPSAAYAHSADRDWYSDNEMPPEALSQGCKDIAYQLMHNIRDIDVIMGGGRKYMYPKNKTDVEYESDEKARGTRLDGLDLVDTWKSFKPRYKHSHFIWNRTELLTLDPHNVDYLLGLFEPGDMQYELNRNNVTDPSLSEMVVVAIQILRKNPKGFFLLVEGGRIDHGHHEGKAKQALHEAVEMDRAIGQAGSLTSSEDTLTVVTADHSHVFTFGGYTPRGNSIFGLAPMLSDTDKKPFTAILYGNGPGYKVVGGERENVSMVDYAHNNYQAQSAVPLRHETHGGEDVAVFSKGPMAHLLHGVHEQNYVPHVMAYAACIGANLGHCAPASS

saos-2 cells = assay: Anticalcification efficacy in saos-2 cells (osteogenic medium, Alizarin Red staining); type: cell-based; settings: Homo sapiens, 168 h, test compound 1 µM, 7 days osteogenic medium, Alizarin Red absorbance 540 nm, read-out: calcification inhibition
Summary of the method: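 Saos-2 cells at 80–90% confluence induced for 7 days in osteogenic medium (DMEM, 100 nM dexamethasone, 10 mM β-glycerophosphate, 0.05 mM ascorbic acid), compound (0.5, 1, 5, 10 […]) added with each medium change. Alizarin Red staining eluted with cetylpyridinium chloride, A540 read; inhibition taken against OM-only absorbance.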

Structure (SMILES)	IC50 (TNAP)	inhibition at 1 µM (saos-2 cells)
COc1ccc(-c2cnn(C3CCN(C(=O)OC(C)(C)C)CC3)c2)cc1S(=O)(=O)Nc1cnc2c(c1)C(=O)NCC2 [Example 85, tert-butyl 4-(4-(4-methoxy-3-(N-(5-oxo-5,6,7,8-tetrahydro-1,6-naphthyridine-3-yl)sulfamoyl)phenyl)-1H-pyrazole-1-yl)piperidine-1-carboxylate]	100 to 1000 nM	< 0%
COc1ccc(Br)cc1S(=O)(=O)Nc1cnc2c(c1)C(=O)N(C)CC2 [Example 87, 5-bromo-2-methoxy-N-(6-methyl-5-oxo-5,6,7,8-tetrahydro-1,6-naphthyridine-3-yl)benzenesulfonamide]	100 to 1000 nM	< 0%
COc1ccc(Br)cc1S(=O)(=O)Nc1cnc2c(c1)CN(C(=O)OC(C)(C)C)CC2 [Example 88, tert-butyl 3-((5-bromo-2-methoxyphenyl)sulfonamido)-7,8-dihydro-1,6-naphthyridine-6(5H)-carboxylate]	100 to 1000 nM	≥ 50%
COc1ccc(OC)c(S(=O)(=O)Nc2cnc3c(c2)CN(C(=O)OC(C)(C)C)CC3)c1 [Example 89, tert-butyl 3-((2,5-dimethoxyphenyl)sulfonamido)-7,8-dihydro-1,6-naphthyridine-6(5H)-carboxylate]	10 to 100 nM	≥ 50%
COc1ccc(F)cc1S(=O)(=O)Nc1cnc2c(c1)CNCC2 [Example 90, 5-fluoro-2-methoxy-N-(5,6,7,8-tetrahydro-1,6-naphthyridine-3-yl)benzenesulfonamide hydrochloride]	100 to 1000 nM	0 to 50%
O=S(=O)(Nc1cnc2c(c1)CNCC2)c1cc(F)ccc1Br [Example 91, 5-fluoro-2-bromo-N-(5,6,7,8-tetrahydro-1,6-naphthyridine-3-yl)benzenesulfonamide hydrochloride]	≥ 1000 nM	< 0%
COc1ccc(Cl)cc1S(=O)(=O)Nc1cnc2c(c1)CNCC2 [Example 92, 5-chloro-2-methoxy-N-(5,6,7,8-tetrahydro-1,6-naphthyridine-3-yl)benzenesulfonamide hydrochloride]	10 to 100 nM	≥ 50%
COc1ccc(Br)cc1S(=O)(=O)Nc1cnc2c(c1)CNCC2 [Example 93, 5-bromo-2-methoxy-N-(5,6,7,8-tetrahydro-1,6-naphthyridine-3-yl)benzenesulfonamide hydrochloride]	10 to 100 nM	≥ 50%
COc1ccc(OC)c(S(=O)(=O)Nc2cnc3c(c2)CNCC3)c1 [Example 94, 2,5-dimethoxy-N-(5,6,7,8-tetrahydro-1,6-naphthyridine-3-yl)benzenesulfonamide hydrochloride]	10 to 100 nM	≥ 50%
CCOC(=O)N1CCc2ncc(NS(=O)(=O)c3cc(F)ccc3OC)cc2C1 [Example 95, ethyl3-((5-fluoro-2-methoxyphenyl)sulfonamido)-7,8-dihydro-1,6-naphthyridine-6(5H)-carboxylate]	100 to 1000 nM	≥ 50%
CCOC(=O)N1CCc2ncc(NS(=O)(=O)c3cc(Cl)ccc3OC)cc2C1 [Example 96, ethyl3-((5-chloro-2-methoxyphenyl)sulfonamido)-7,8-dihydro-1,6-naphthyridine-6(5H)-carboxylate]	10 to 100 nM	≥ 50%
CCOC(=O)N1CCc2ncc(NS(=O)(=O)c3cc(Br)ccc3OC)cc2C1 [Example 97, ethyl3-((5-bromo-2-methoxyphenyl)sulfonamido)-7,8-dihydro-1,6-naphthyridine-6(5H)-carboxylate]	100 to 1000 nM	≥ 50%
COc1ccc(Cl)cc1S(=O)(=O)Nc1cnc2c(c1)CN(C(=O)OCC(C)(C)C)CC2 [Example 98, neopentyl3-((5-chloro-2-methoxyphenyl)sulfonamido)-7,8-dihydro-1,6-naphthyridine-6(5H)-carboxylate]	100 to 1000 nM	≥ 50%

Second part, led by results:

IC50 (TNAP)	Structure (SMILES)	inhibition at 1 µM (saos-2 cells)
100 to 1000 nM	COc1ccc(-c2cnn(C3CCOCC3)c2)cc1S(=O)(=O)Nc1cnc2c(c1)C(=O)NCC2 [Example 76, 2-methoxy-N-(5-oxo-5,6,7,8-tetrahydro-1,6-naphthyridine-3-yl)-5-(1-(tetrahydro-2H-pyran-4-yl)-1H-pyrazole-4-yl)benzenesulfonamide]	≥ 50%
100 to 1000 nM	COc1ccc(-c2ccc(F)nc2)cc1S(=O)(=O)Nc1cnc2c(c1)C(=O)NCC2 [Example 77, 5-(6-fluoropyridine-3-yl)-2-methoxy-N-(5-oxo-5,6,7,8-tetrahydro-1,6-naphthyridine-3-yl)benzenesulfonamide]	≥ 50%
≥ 1000 nM	COc1ccc(-c2cnc(N)nc2C(F)(F)F)cc1S(=O)(=O)Nc1cnc2c(c1)C(=O)NCC2 [Example 78, 5-(2-amino-4-(trifluoromethyl)pyrimidine-5-yl)-2-methoxy-N-(5-oxo-5,6,7,8-tetrahydro-1,6-naphthyridine-3-yl)benzenesulfonamide]	< 0%
100 to 1000 nM	COc1ccc(-c2cnn(C3COC3)c2)cc1S(=O)(=O)Nc1cnc2c(c1)C(=O)NCC2 [Example 79, 2-methoxy-5-(1-(oxetane-3-yl)-1H-pyrazole-4-yl)-N-(5-oxo-5,6,7,8-tetrahydro-1,6-naphthyridine-3-yl)benzenesulfonamide]	≥ 50%
100 to 1000 nM	COc1ccc(-c2cnn(CCO)c2)cc1S(=O)(=O)Nc1cnc2c(c1)C(=O)NCC2 [Example 80, 5-(1-(2-hydroxyethyl)-1H-pyrazole-4-yl)-2-methoxy-N-(5-oxo-5,6,7,8-tetrahydro-1,6-naphthyridine-3-yl)benzenesulfonamide]	≥ 50%
10 to 100 nM	COc1ccc(-c2cn(C(C)C)nc2C(F)(F)F)cc1S(=O)(=O)Nc1cnc2c(c1)C(=O)NCC2 [Example 81, 5-(1-isopropyl-3-(trifluoromethyl)-1H-pyrazole-4-yl)-2-methoxy-N-(5-oxo-5,6,7,8-tetrahydro-1,6-naphthyridine-3-yl)benzenesulfonamide]	≥ 50%
≤ 10 nM	CCn1cc(-c2ccc(OC)c(S(=O)(=O)Nc3cnc4c(c3)C(=O)NCC4)c2)c(C(F)(F)F)n1 [Example 82, 5-(1-ethyl-3-(trifluoromethyl)-1H-pyrazole-4-yl)-2-methoxy-N-(5-oxo-5,6,7,8-tetrahydro-1,6-naphthyridine-3-yl)benzenesulfonamide]	≥ 50%
10 to 100 nM	COc1ccc(-c2cnoc2)cc1S(=O)(=O)Nc1cnc2c(c1)C(=O)NCC2 [Example 83, 5-(isoxazole-4-yl)-2-methoxy-N-(5-oxo-5,6,7,8-tetrahydro-1,6-naphthyridine-3-yl)benzenesulfonamide]	≥ 50%
10 to 100 nM	COc1ccc(-c2c(C)noc2C)cc1S(=O)(=O)Nc1cnc2c(c1)C(=O)NCC2 [Example 84, 5-(3,5-dimethylisoxazole-4-yl)-2-methoxy-N-(5-oxo-5,6,7,8-tetrahydro-1,6-naphthyridine-3-yl)benzenesulfonamide]	≥ 50%
100 to 1000 nM	COc1ccc(-c2cnn(C3CCNCC3)c2)cc1S(=O)(=O)Nc1cnc2c(c1)C(=O)NCC2 [Example 86, 2-methoxy-N-(5-oxo-5,6,7,8-tetrahydro-1,6-naphthyridine-3-yl)-5-(1-(piperidine-4-yl)-1H-pyrazole-4-yl)benzenesulfonamide hydrochloride]	< 0%
